According to patent publication US20200187527A1, “METHODS TO INCREASE SILAGE QUALITY IN CROPS” (Valent BioSciences LLC, priority 2013, published 2020):

Assays:
alfalfa = conditions: GA3 applications; cited from earlier work
corn [1] = test: Example 1 field trial: corn silage quality after foliar RyzUp Smartgrass at V4; type: in vivo, Zea mays (corn); conditions: vs untreated Control; 3.2 g GA3/acre (8 g/ha) at V4
Procedure: (§1) Field trials were conducted at various locations. Portions of the field were treated with RyzUp® Smartgrass (40% (w/v) GA3 (available from Valent BioSciences Corporation), while other parts of the field were not treated. RyzUp® Smartgrass applications were limited to applications between V3 and V6, with spray volumes for foliar applications ranging from 10-25 gallons/acre.
(§2) Trials were harvested using commercial equipment at standard timings for corn silage. Both RyzUp® Smartgrass and untreated areas of the field were harvested separately in order to obtain biomass yield (ton/acre). Subsequently, the harvested plant material was used for producing silage.
(§3) Representative samples were taken for subsequent analysis. Forage was analyzed by standard methods to determine quality parameters including dry matter, crude protein, Acid Detergent Fiber (ADF), Neutral Detergent Fiber (NDF), and starch data. Calculations were included for moisture, adjusted crude protein, Total Digestible Nutrients (TDN), Net Energy for Lactation (NEL), Net Energy for Gain (NEG) and protein solubility. This information was then entered into the MILK 2006 University of Wisconsin Corn Silage evaluation system. Calculations of the milk production, energy content and digestibility per ton of corn biomass were carried out using a calculation method described in the following references: Schwab, E. C., and R. D. Shaver. (2001); b) Schwab, E C et al. (2003); and c) Undersander, D J et al., (1993)
Modern corn hybrid varieties were grown in a field trial. RyzUp® Smartgrass (40% GA3) was applied at V4 growth stage at a rate of 3.2 g GA^3/acre (8 g/ha). In this trial, silage quality data were analyzed for each variety and the means were used to calculate milk production (Table 1). Percent moisture, crude protein, ADF and NDF were decreased while TDN, starch, and milk production were increased.

smooth bromegrass = conditions: GA3 applications; cited from earlier work
corn [2] = test: Example 2 field trial: corn silage quality after RyzUp Smartgrass at V5 under drought stress; type: in vivo, Zea mays (corn); conditions: vs untreated Control, 6.4 g GA3/acre (16 g/ha) at V5
Procedure: as §1, §2, §3
Corn grown in a field trial was treated at the V5 stage with RyzUp® Smartgrass (GA3 (w/v) 40%) at a rate of 6.4 g GA^3/acre (16 g/ha). Treatments were made in a spray volume of 15 gallons of water per acre with added surfactant. The overall conditions of this trial were drought stress both before and following application.

C=C1C[C@]23C[C@@]1(O)CC[C@H]2[C@@]12C=C[C@H](O)[C@@](C)(C(=O)O1)[C@H]2[C@@H]3C(=O)O [GA3, gibberellin 3]
dry weight (alfalfa): dose-dependent increase
growth (alfalfa): dose-dependent increase
in vitro digestible dry matter (IVDDM) (alfalfa): decreased
% NDF, Percent Difference (corn [1]): −2.7%
% Starch, Percent Difference (corn [1]): +16.7%
% TDN, Percent Difference (corn [1]): +1.2%
Milk (lbs/t), Percent Difference (corn [1]): +2.6%
dry weight (smooth bromegrass): dose-dependent increase
growth (smooth bromegrass): dose-dependent increase
in vitro digestible dry matter (IVDDM) (smooth bromegrass): decreased
% NDF, Percent Difference (corn [2]): −17.8%
% Starch, Percent Difference (corn [2]): +55.4%
% TDN, Percent Difference (corn [2]): +8%
